The text below walks through data of the supplement of paper PMC10307832.

Holding throughout (assay): relative viability (nuclei count vs DMSO), 5 days (fraction); higher = more cells survive
Compound in one assay: C=CCNC1=C2C[C@@H](C)C[C@H](OC)[C@H](O)[C@@H](C)/C=C(\C)[C@H](OC(N)=O)[C@@H](OC)/C=C\C=C(/C)C(=O)NC(=CC1=O)C2=O [17-AAG]
In outline: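 Hoechst staining, done together with fixation and permeabilisation, marked nuclei for 4× imaging and MetaXpress counting. This followed 5 days without medium change after lung cancer cell lines, kept overnight at 37 °C in 1536-well plates, were pinned with five library-drug doses (not always all listed) spaced by √10 on vehicle-anchored plates. Viability is the ratio of treated-well to vehicle-well nuclei, expressed as a median across plates. Plates passed only at control CV below 25% with at least one doubling.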

Compound in the assay “17-AAG + Trametinib”: C=CCNC1=C2C[C@@H](C)C[C@H](OC)[C@H](O)[C@@H](C)/C=C(\C)[C@H](OC(N)=O)[C@@H](OC)/C=C\C=C(/C)C(=O)NC(=CC1=O)C2=O [17-AAG] + CC(=O)Nc1cccc(-n2c(=O)n(C3CC3)c(=O)c3c(Nc4ccc(I)cc4F)n(C)c(=O)c(C)c32)c1 [Trametinib] (partner 0.02 µM)
In outline: (§1)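 After 5 days of treatment, lung cancer cells in 1536-well plates were fixed and stained in a single step (final 0.05% Triton X-100, 1% formaldehyde, 1 ug/ml Hoechst) and their nuclei counted on 4× images. Treatment had been applied by pin tool the day after seeding as one drug alone or as a fixed anchor-drug dose with five library-drug doses (not always all listed) in √10 steps. Relative viability is the nuclei count of treated wells divided by that of vehicle wells, and values are medians of duplicate plates.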

Compound in the assay “17-AAG + AZD7762”: C=CCNC1=C2C[C@@H](C)C[C@H](OC)[C@H](O)[C@@H](C)/C=C(\C)[C@H](OC(N)=O)[C@@H](OC)/C=C\C=C(/C)C(=O)NC(=CC1=O)C2=O [17-AAG] + NC(=O)Nc1cc(-c2cccc(F)c2)sc1C(=O)N[C@H]1CCCNC1 [AZD7762] (partner 0.2 µM)
The gist of the method: as §1

Compound in the assay “17-AAG + Tozasertib”: C=CCNC1=C2C[C@@H](C)C[C@H](OC)[C@H](O)[C@@H](C)/C=C(\C)[C@H](OC(N)=O)[C@@H](OC)/C=C\C=C(/C)C(=O)NC(=CC1=O)C2=O [17-AAG] + Cc1cc(Nc2cc(N3CCN(C)CC3)nc(Sc3ccc(NC(=O)C4CC4)cc3)n2)n[nH]1 [Tozasertib] (partner 0.1 µM)
The gist of the method: as §1

Regarding NCI-H2405, the relative viability is 1.02 with 17-AAG (0.00128 µM); 0.957 with 17-AAG (0.004048 µM); 0.663 with 17-AAG (0.0128 µM); 0.251 with 17-AAG (0.04048 µM); 0.236 in the assay with 17-AAG (0.128 µM); 0.663 with 17-AAG + Trametinib (first compound 0.00128 µM). Moreover, the relative viability with 17-AAG + Trametinib (first compound 0.004048 µM) worked out at 0.482; with 17-AAG + Trametinib (first compound 0.0128 µM), 0.338; with 17-AAG + Trametinib (first compound 0.04048 µM), 0.204; in the assay with 17-AAG + Trametinib (first compound 0.128 µM), 0.171; with 17-AAG + AZD7762 (first compound 0.00128 µM) it was 0.741; with 17-AAG + AZD7762 (first compound 0.004048 µM), 0.525. Further, the relative viability with 17-AAG + AZD7762 (first compound 0.0128 µM) came to 0.23; with 17-AAG + AZD7762 (first compound 0.04048 µM), 0.153; with 17-AAG + AZD7762 (first compound 0.128 µM), 0.143; in the assay with 17-AAG + Tozasertib (first compound 0.00128 µM), 0.776; in the assay with 17-AAG + Tozasertib (first compound 0.004048 µM) it was 0.765; with 17-AAG + Tozasertib (first compound 0.0128 µM), 0.451. The relative viability was found to be 0.28 in the assay with 17-AAG + Tozasertib (first compound 0.04048 µM) and 0.156 in the assay with 17-AAG + Tozasertib (first compound 0.128 µM).

Regarding NCI-H1975, the relative viability with 17-AAG (0.00128 µM) was 0.909; with 17-AAG (0.004048 µM), 0.889; with 17-AAG (0.0128 µM) it was 0.372; in the assay with 17-AAG (0.04048 µM), 0.16; with 17-AAG (0.128 µM) it was 0.167; with 17-AAG + Trametinib (first compound 0.00128 µM), 0.319. Besides, the relative viability amounted to 0.358 in the assay with 17-AAG + Trametinib (first compound 0.004048 µM); 0.207 with 17-AAG + Trametinib (first compound 0.0128 µM); 0.124 with 17-AAG + Trametinib (first compound 0.04048 µM); 0.147 with 17-AAG + Trametinib (first compound 0.128 µM); 0.753 with 17-AAG + AZD7762 (first compound 0.00128 µM); 0.656 with 17-AAG + AZD7762 (first compound 0.004048 µM). The relative viability with 17-AAG + AZD7762 (first compound 0.0128 µM) stood at 0.331; with 17-AAG + AZD7762 (first compound 0.04048 µM) it was 0.203; in the assay with 17-AAG + AZD7762 (first compound 0.128 µM) it was 0.216; in the assay with 17-AAG + Tozasertib (first compound 0.00128 µM) it was 0.796; with 17-AAG + Tozasertib (first compound 0.004048 µM), 0.587; with 17-AAG + Tozasertib (first compound 0.0128 µM), 0.145. Moreover, the relative viability with 17-AAG + Tozasertib (first compound 0.04048 µM) came out at 0.12; in the assay with 17-AAG + Tozasertib (first compound 0.128 µM) it was 0.0964.

In the case of NCI-H2347, the relative viability was determined as 0.958 with 17-AAG (0.00128 µM); 0.998 in the assay with 17-AAG (0.004048 µM); 1.13 with 17-AAG (0.0128 µM); 0.557 in the assay with 17-AAG (0.04048 µM); 0.385 with 17-AAG (0.128 µM); 0.335 with 17-AAG + Trametinib (first compound 0.00128 µM). In addition, the relative viability was 0.275 in the assay with 17-AAG + Trametinib (first compound 0.004048 µM); 0.351 in the assay with 17-AAG + Trametinib (first compound 0.0128 µM); 0.288 with 17-AAG + Trametinib (first compound 0.04048 µM); 0.321 with 17-AAG + Trametinib (first compound 0.128 µM); 0.891 with 17-AAG + AZD7762 (first compound 0.00128 µM); 0.578 with 17-AAG + AZD7762 (first compound 0.004048 µM). Also, the relative viability with 17-AAG + AZD7762 (first compound 0.0128 µM) turned out to be 0.472; with 17-AAG + AZD7762 (first compound 0.04048 µM) it was 0.26; in the assay with 17-AAG + AZD7762 (first compound 0.128 µM), 0.22; with 17-AAG + Tozasertib (first compound 0.00128 µM), 0.564; with 17-AAG + Tozasertib (first compound 0.004048 µM) it was 0.518; with 17-AAG + Tozasertib (first compound 0.0128 µM), 0.507. For the same cell line, the relative viability with 17-AAG + Tozasertib (first compound 0.04048 µM) was found to be 0.278; in the assay with 17-AAG + Tozasertib (first compound 0.128 µM), 0.303.

For NCI-H522, the relative viability with 17-AAG (0.00128 µM) is 0.805; with 17-AAG (0.004048 µM), 1.09; with 17-AAG (0.0128 µM), 0.782; with 17-AAG (0.04048 µM), 0.602; with 17-AAG (0.128 µM) it was 0.433; with 17-AAG + Trametinib (first compound 0.00128 µM) it was 0.724. For the same cell line, the relative viability in the assay with 17-AAG + Trametinib (first compound 0.004048 µM) worked out at 0.836; with 17-AAG + Trametinib (first compound 0.0128 µM), 0.679; with 17-AAG + Trametinib (first compound 0.04048 µM) it was 0.686; in the assay with 17-AAG + Trametinib (first compound 0.128 µM), 0.374; in the assay with 17-AAG + AZD7762 (first compound 0.00128 µM), 0.845; with 17-AAG + AZD7762 (first compound 0.004048 µM), 0.857. Besides, the relative viability is 0.569 with 17-AAG + AZD7762 (first compound 0.0128 µM); 0.51 with 17-AAG + AZD7762 (first compound 0.04048 µM); 0.393 with 17-AAG + AZD7762 (first compound 0.128 µM); 0.621 with 17-AAG + Tozasertib (first compound 0.00128 µM); 0.532 with 17-AAG + Tozasertib (first compound 0.004048 µM); 0.619 with 17-AAG + Tozasertib (first compound 0.0128 µM). Also, the relative viability with 17-AAG + Tozasertib (first compound 0.04048 µM) worked out at 0.558; with 17-AAG + Tozasertib (first compound 0.128 µM), 0.502.

A-427: the relative viability with 17-AAG (0.00128 µM) turned out to be 0.967; with 17-AAG (0.004048 µM), 1.01; with 17-AAG (0.0128 µM), 0.95; in the assay with 17-AAG (0.04048 µM) it was 0.62; with 17-AAG (0.128 µM), 0.265; with 17-AAG + Trametinib (first compound 0.00128 µM), 0.799. Also, the relative viability amounted to 0.759 with 17-AAG + Trametinib (first compound 0.004048 µM); 0.946 in the assay with 17-AAG + Trametinib (first compound 0.0128 µM); 0.419 with 17-AAG + Trametinib (first compound 0.04048 µM); 0.282 with 17-AAG + Trametinib (first compound 0.128 µM); 0.819 with 17-AAG + AZD7762 (first compound 0.00128 µM); 0.798 in the assay with 17-AAG + AZD7762 (first compound 0.004048 µM). The relative viability with 17-AAG + AZD7762 (first compound 0.0128 µM) is 0.618; with 17-AAG + AZD7762 (first compound 0.04048 µM), 0.268; in the assay with 17-AAG + AZD7762 (first compound 0.128 µM), 0.234; with 17-AAG + Tozasertib (first compound 0.00128 µM), 0.21; in the assay with 17-AAG + Tozasertib (first compound 0.004048 µM), 0.221; in the assay with 17-AAG + Tozasertib (first compound 0.0128 µM), 0.238. Moreover, the relative viability with 17-AAG + Tozasertib (first compound 0.04048 µM) was found to be 0.257; in the assay with 17-AAG + Tozasertib (first compound 0.128 µM), 0.186.

Consider LCLC-97TM1, for which the relative viability with 17-AAG (0.00128 µM) was determined as 0.905; with 17-AAG (0.004048 µM) it was 0.974; with 17-AAG (0.0128 µM) it was 0.768; in the assay with 17-AAG (0.04048 µM) it was 0.677; with 17-AAG (0.128 µM), 0.123; with 17-AAG + Trametinib (first compound 0.00128 µM), 0.201. The relative viability in the assay with 17-AAG + Trametinib (first compound 0.004048 µM) came to 0.172; with 17-AAG + Trametinib (first compound 0.0128 µM), 0.163; with 17-AAG + Trametinib (first compound 0.04048 µM) it was 0.232; with 17-AAG + Trametinib (first compound 0.128 µM), 0.152; with 17-AAG + AZD7762 (first compound 0.00128 µM), 0.281; with 17-AAG + AZD7762 (first compound 0.004048 µM), 0.359. The relative viability with 17-AAG + AZD7762 (first compound 0.0128 µM) worked out at 0.278; with 17-AAG + AZD7762 (first compound 0.04048 µM), 0.21; with 17-AAG + AZD7762 (first compound 0.128 µM) it was 0.0815; with 17-AAG + Tozasertib (first compound 0.00128 µM), 0.213; in the assay with 17-AAG + Tozasertib (first compound 0.004048 µM) it was 0.268; in the assay with 17-AAG + Tozasertib (first compound 0.0128 µM), 0.268. In addition, the relative viability in the assay with 17-AAG + Tozasertib (first compound 0.04048 µM) is 0.251; with 17-AAG + Tozasertib (first compound 0.128 µM), 0.21.

For HCC-15, the relative viability with 17-AAG (0.00128 µM) was 0.94; in the assay with 17-AAG (0.004048 µM) it was 0.923; with 17-AAG (0.0128 µM), 0.557; with 17-AAG (0.04048 µM) it was 0.14; with 17-AAG (0.128 µM) it was 0.122; in the assay with 17-AAG + Trametinib (first compound 0.00128 µM) it was 0.415. Also, the relative viability with 17-AAG + Trametinib (first compound 0.004048 µM) turned out to be 0.416; with 17-AAG + Trametinib (first compound 0.0128 µM), 0.286; with 17-AAG + Trametinib (first compound 0.04048 µM), 0.214; with 17-AAG + Trametinib (first compound 0.128 µM), 0.13; with 17-AAG + AZD7762 (first compound 0.00128 µM), 1.29; with 17-AAG + AZD7762 (first compound 0.004048 µM) it was 1.27. Also, the relative viability is 0.986 with 17-AAG + AZD7762 (first compound 0.0128 µM); 0.461 with 17-AAG + AZD7762 (first compound 0.04048 µM); 0.158 in the assay with 17-AAG + AZD7762 (first compound 0.128 µM); 0.429 with 17-AAG + Tozasertib (first compound 0.00128 µM); 0.453 with 17-AAG + Tozasertib (first compound 0.004048 µM); 0.365 with 17-AAG + Tozasertib (first compound 0.0128 µM). Also, the figures for the relative viability with 17-AAG + Tozasertib (first compound 0.04048 µM) and in the assay with 17-AAG + Tozasertib (first compound 0.128 µM) were 0.124 and 0.0778, respectively.
